The text below walks through data of US11446391B2, “Amphiphilic dye-coated inorganic nanoparticle clusters” (THE TRUSTEES OF THE UNIVERSITY OF PENNSYLVANIA, priority 2017, dated 2022).

Data set [1] concerns GBM. To be noted: GBM patients, PDT; cited from earlier work.
The nature of data set [2]: Absorbance spectrum in water (solubility). Format: physicochemical. As to the method:
FIGS. 22A-22D. (FIG. 22A) Illustration of Ce6-coated SPION nanoclusters (Ce6-SCs). Iron oxide nanoparticles are stabilized in aqueous media by the self-assembly of amphiphilic PS Chlorin e6 on the surface using a microemulsion. (FIG. 22B) Dynamic light scattering (DLS) of Ce6-SCs in water. […] (FIG. 22C) Particle size and T2 relaxation time was monitored for 6 days in water at 25° C. (FIG. 22D) Magnetic resonance (MR) relaxometry measurements of Ce6-SCs. Inset: T2-weighted image of Ce6-SCs at various concentrations in a microplate. (FIG. 22E) Absorbance spectra of Ce6-SCs (black) and free Ce6 (brown) in water. The inset images are vials containing solutions of Ce6-SCs and free Ce6 in water.
Relaxometry measurements indicated an average r2 value of 301±4 mM^−1 s^−1 and MR images of a phantom confirmed strong T2 contrast relative to water (FIG. 22D).

Data set [3] can be described thus: Vials of free Ce6 or Ce6 nanoclusters in water. It counts as physicochemical. To be noted: equal concentrations of Ce6. As to the method: FIG. 43 is a photograph of vials containing solution with free Ce6 or Ce6 nanoclusters in water (at equal concentrations of Ce6).
The size distribution of Ce6 nanoclusters was measured by dynamic light scattering (DLS) in water at 25° C. (FIG. 39). The amphiphilic Ce6 molecules solubilized the PCL, creating stable nanoclusters with an average hydrodynamic diameter of 58±4 nm and an average polydispersity index (PDI) of <0.2. Fluorescence detection takes place when Ce6 is excited at around 404 nm, which then emits a characteristic reference fluorescence peak at approximately 650 nm (FIG. 40).

For data set [4] the following is noted: Ce6 at 667 nm, PpIX at 631 nm; in M-1cm-1 (unit assumed); cited from earlier work.

As for `C=Cc1c(C)c2cc3nc(c(CC(=O)N[C@@H](CC(=O)O)C(=O)O)c4[nH]c(cc5nc(cc1[nH]2)C(C)=C5CC)c(C)c4C(=O)O)[C@@H](CCC(=O)O)[C@@H]3C` [talaporfin, mono-L-aspartyl chlorin e6], in data set [1], the adverse events result was “only mild adverse events” and the overall survival is 24.8 months.
As for Chlorin e6 [Ce6], the “solubility in water judged from absorbance spectrum (peak at ~665 nm)” value in data set [2] is “poor solubility”. For the same compound, the behaviour in water entry in data set [3] is “aggregate and precipitate in water”. Also, the peak extinction coefficient in data set [4] is 55,000.
